Measured values from patent publication US6034136A, “Certain cyclic thio substituted acylaminoacid amide derivatives” (Novartis AG, priority 1998, dated 2000).

Key:
Assay type in all cases: biochemical
[1] = target: T1, Human recombinant fibroblast collagenase (collagenase-1) (Homo sapiens, UniProt P03956); assay: Collagenase-1 inhibitory activity (bovine type I collagen digestion, Coomasie blue); conditions: 2 hours at 35° C., read-out: IC50 for inhibition of collagenase-1 activity
T1 sequence (P03956 100-469): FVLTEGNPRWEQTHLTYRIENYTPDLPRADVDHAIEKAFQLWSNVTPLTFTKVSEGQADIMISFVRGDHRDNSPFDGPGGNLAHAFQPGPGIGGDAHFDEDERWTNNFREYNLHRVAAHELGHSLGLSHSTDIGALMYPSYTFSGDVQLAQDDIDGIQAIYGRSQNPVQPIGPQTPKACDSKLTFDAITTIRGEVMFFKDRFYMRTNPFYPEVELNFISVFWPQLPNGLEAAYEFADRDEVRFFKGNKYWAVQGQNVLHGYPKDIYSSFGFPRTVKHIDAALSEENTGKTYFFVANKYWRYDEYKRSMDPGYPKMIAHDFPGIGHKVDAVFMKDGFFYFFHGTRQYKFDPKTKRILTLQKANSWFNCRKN
Experimental: Collagenase -1 inhibitory activity is determined as follows: ninety six-well, flat-bottom microtiter plates are first coated with bovine type I collagen (35 ug/well) over a two-day period at 30° C. using a humidified and then dry atmosphere; plates are rinsed, air dried for 3-4 hours, sealed with Saran wrap and stored in a refrigerator. Human recombinant fibroblast collagenase and a test compound (or buffer) are added to wells (total volume=0.1 ml) and plates are incubated for 2 hours at 35° C. under humidified conditions; the amount of collagenase used per well is that causing approximately 80% of maximal digestion of collagen. The incubation media are removed from the wells, which are then rinsed with buffer, followed by water. […] Sodium dodecyl sulfate (20% in 50% dimethylformamide in water) is added to solubilize the remaining stained collagen and the optical density at 570 nm wave length is measured. The decrease in optical density due to collagenase (from that of collagen without enzyme) is compared to the decrease in optical density due to the enzyme in the presence of test compound, and percent inhibition of enzyme activity is calculated. IC50 's are determined from a range of concentrations of inhibitors (4-5 concentrations, each tested in triplicate), and KI values are calculated. […]

collagenase-3 = collagenase-3 (Homo sapiens, UniProt P45452); assay: Collagenase-3 inhibitory activity (fluorescent substrate MCA-Pro-Leu-Gly-Dpa-Ala-Arg-NH2); conditions: room temperature, 10 minutes preincubation, fluorescence; read-out: IC50 for inhibition of collagenase-3 activity
Experimental: Collagenase-3 inhibitory activity is determined as follows:
[…] solutions of substrate (MCA-Pro-Leu-Gly-Dpa-Ala-Arg-NH2, J. Biol. Chem. 271, 1544-1550, 1996) and 10 nM stock solution of inhibitor are prepared in DMSO. They are diluted with assay buffer ([…] at pH 7.5 containing 10 mM CaCl2, 0.002% sodium azide) as needed. Recombinant pro-collagenase-3 is activated with 1 mM APMA, and stored in the assay buffer after extensive dialysis in the assay buffer. Recombinant enzyme solution (0.05 ml, 1.3 nM) is mixed with 0.05 mL of inhibitor solution at various concentrations for 10 minutes at room temperature. Then 0.025 mL of 8 μM substrate solution is added and fluorescence (λex=325; λem=405) is continuously measured at room temperature. The percent inhibition of collagenase-3 activity is determined from the effect of inhibitor at various concentrations on the change in fluorescence; the IC50 is determined graphically.
Compounds of formula I have an IC50 of about 5 nM to about 100 nM for inhibition of collagenase-3 activity.

[2] = target: recombinant human stromelysin (Homo sapiens, UniProt P08254); assay: inhibition of stromelysin activity (hydrolysis of Substance P, HPLC); conditions: Substance P substrate, 30 minutes at 37° C.
recombinant human stromelysin, sequence (P08254 100-477): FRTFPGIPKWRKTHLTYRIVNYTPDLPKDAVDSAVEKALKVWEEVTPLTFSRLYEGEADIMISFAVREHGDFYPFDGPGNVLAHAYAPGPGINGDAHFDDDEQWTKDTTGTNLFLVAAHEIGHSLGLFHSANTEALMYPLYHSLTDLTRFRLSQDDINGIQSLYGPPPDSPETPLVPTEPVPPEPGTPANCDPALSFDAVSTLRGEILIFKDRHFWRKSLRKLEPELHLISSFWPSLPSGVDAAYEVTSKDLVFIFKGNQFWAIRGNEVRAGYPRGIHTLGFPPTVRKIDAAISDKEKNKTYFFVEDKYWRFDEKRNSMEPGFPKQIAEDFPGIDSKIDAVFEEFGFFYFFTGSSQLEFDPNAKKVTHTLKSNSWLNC
Experimental: One test to determine the inhibition of stromelysin activity is based on its hydrolysis of Substance P using a modified procedure of Harrison et al (Harrison, R. A., Teahan J., and Stein R., A semicontinuous, high performance chromatography based assay for stromelysin, Anal. Biochem. 180, 110-113 (1989)). In this assay, Substance P is hydrolyzed by recombinant human stromelysin to generate a fragment, Substance P 7-11, which can be quantitated by HPLC. In a typical assay, a 10 mM stock solution of a compound to be tested is diluted in the assay buffer to 50 μM, mixed 1:1 with 8 μg recombinant human stromelysin (mol. wt. 45-47 kDa, 2 Units; where 1 Unit produces […] of Substance P 7-11 in 30 minutes) and incubated along with 0.5 mM Substance P in a final volume of 0.125 ml for 30 minutes at 37° C. The reaction is stopped by adding 10 mM EDTA and Substance P 7-11 is quantified on RP-8 HPLC. The IC50 for inhibition of stromelysin activity and Ki are calculated from control reaction without the inhibitor.
Compounds of formula I have an IC50 of about 10 nM to about 5 μM for inhibition of stromelysin activity.

SMILES	IC50 [1]	IC50 (collagenase-3)	IC50 [2]
CNC(=O)[C@H](Cc1ccccc1)NC(=O)C1(C(S)CCc2ccccc2)CCCCC1 (stereo partly drawn) [2(d), (S)-2-[N-(1-(1-mercapto-3-phenylpropyl)-cyclohexanecarbonyl)amino]-3-phenylpropionic acid N-methylamide]	~200 nM	~20 nM	
CCO[C@H]1CC[C@@](CS)(C(=O)N[C@@H](Cc2ccccc2)C(=O)Nc2ccccc2)CC1 [2(e), (S)-2-[N-(1-mercaptomethyl-cis-4-ethoxycyclohexanecarbonyl)amino]-3-phenylpropionic acid N-phenylamide]			~70 nM
